# Laboratory results from patent US8569055B2, “Identification and characterization of cancer stem cells and methods of use” (City of Hope, priority 2006, dated 2013).
# B1: Bikunin: a physiological inhibitor of uPA (protein, UniProt P02760 206-352, looked up)
# Inter-alpha-trypsin inhibitor …: AVLPQEEEGSGGGQLVTEVTKKEDSCQLGYSAGPCMGMTSRYFYNGTSMACETFQYGGCMGNGNNFVTEKECLQTCRTVAACNLPIVRGPCRAFIQLWAFDAVKGKCVLFPYGGCQGNGNKFYSEKECREYCGVPGDGDEELLRFSN
# modifications: Inter-alpha-trypsin inhibitor light chain
# Assays:
# Format in all cases: cell-based, human
# [1] = system: non-sorted NCI-H211, NCI-H69AR, NCI-H1417 cells; assay: Cytotoxicity assay (Guava ViaCount), 5-FU, non-sorted SCLC cell lines; details: 5-FU up to 200 μg/ml, 72 hours
# Description: (§1) FIG. 2: Cytotoxic effect of 5-FU on non-sorted and sorted (uPAR-positive and uPAR-negative populations) derived from SCLC cell lines. (A) […] cells (H211, H69AR, H1417) were placed in wells of a 48-well plate in triplicates and incubated for 72 hr in the presence of varying concentrations of 5-FU. (B) SCLC cell lines were FACS sorted after staining with anti-uPAR antibodies and were plated at the same seeding density ([…]/well of 96-well plate) and treated with 5-FU at […] for 72 hr. Cell survival was evaluated after adding Guava ViaCount reagent and counting viable and dead cells. Only viable cells were included in data analysis, and 100% viability was defined as number of viable cells cultured in absence of 5-FU. […] The data points represent averages±SD of three independent experiments. […]
# (§2) Cells were counted, placed into 96-well plates (4×10^3 cells/well, in triplicate), and treated with 5-fluorouracil (5-FU) at a final concentration of 0, 3, 10, 100, or 200 μg/ml. After incubation for 72 hours, both viable and dead cells were counted using the Guava ViaCount assay. […] Fluorescence of the dyes allows quantitative assessment of both viable and non-viable cells in suspension. […]
# [2] = system: uPAR-positive sorted NCI-H211 cells; assay: Cytotoxicity assay (Guava ViaCount), 5-FU, sorted uPAR-positive NCI-H211; details: uPAR-positive sorted NCI-H211, 72 hours
# Description: as §1, §2
# [3] = system: uPAR-positive sorted NCI-H1417 cells; assay: Cytotoxicity assay (Guava ViaCount), 5-FU, sorted uPAR-positive NCI-H1417; details: uPAR-positive sorted NCI-H1417, 72 hours
# Description: as §1, §2
# [4] = system: uPAR-positive NCI-H69AR cells; assay: Cytotoxicity assay (Guava ViaCount), 5-FU, sorted uPAR-positive NCI-H69AR; details: 72 hours
# Description: as §1, §2
# [5] = system: uPAR-negative NCI-H69AR cells; assay: Cytotoxicity assay (Guava ViaCount), 5-FU, sorted uPAR-negative NCI-H69AR; details: 72 hours
# Description: as §1, §2
# NSC F3 stem cell = assay: Inhibition of stem cell migration by uPAR inhibitors, in vitro migration assay; details: inhibitor applied to lower chamber of migration assay system
# Text: FIG. 10: Inhibition of NSC F3 stem cell migration by anti-uPAR antibodies and bikunin.
# The role of the uPA/uPAR system in stem cell migration was investigated using the immortalized neural stem cell line (NSC) HB1.F3.C1 and bone marrow-derived mesenchymal stem cells (MSC) (passages 5-6) for in vitro cell migration assays. Five cancer cell lines expressing high levels of uPAR (SK-N-AS, U251, PC-3, MDA-MB-231, and CRL-5904) and five cancer cell lines expressing low levels of uPAR (COLO-320, NB-1691, CRL-5824, CRL-5869, and MCF-7) as determined in Example 6 were utilized for this experiment.
# The effect of uPAR inhibitors on stem cell migration was examined in order to verify that increased stem cell migration to tumor cells expressing high levels of uPAR was dependent on uPAR. Bikunin, a physiological inhibitor of uPA, and various anti-uPAR antibodies were applied to the lower chamber of the migration assay system.
molecule,measurement,setting,value
"O=c1[nH]cc(F)c(=O)[nH]1 [5-FU, 5-fluorouracil]",cells killed,[1],40-80%
same,cells killed,[2],40-50%
same,cells killed,[3],40-50%
same,cells killed,[4]; 10 μg/ml 5-FU,30%
same,killing effect,[4]; 200 μg/ml 5-FU,approximately 100%
same,cells killed,[5]; 10 μg/ml 5-FU,85%
same,killing effect,[5]; 200 μg/ml 5-FU,approximately 100%
B1,inhibition of stem cell migration,NSC F3 stem cell,effectively inhibited stem cell migration
